Test results reported in patent US20210032257A1, “(E)-1-(4-(DIMETHYLAMINO)BUT-2-ENOYL)PYRROLIDIN-3-YL 4-((3-ISOPROPYL-5-METHYLPYRAZOLO[1,5-A]PYRIMIDIN-7-YL)AMINO)PIPERIDINE-1-CARBOXYLATE FOR INHIBITING CDK7” (Eli Lilly and Company, priority 2017, published 2021).

Experiments:
Test in all cases: Biomarker study proliferation (CellTiter-Glo)
Assay type in all cases: cell-based
[1] = tested on: EVSAT
Summary of the method: (§1)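 First, cells are plated at 5000 per well and left overnight at 37 °C. Next, compound is added as a 10-point threefold series (10× dosing plate to 1× final). Then plates incubate 7 days, and CellTiter-Glo luminescence is measured.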

[2] = tested on: SKOV3
Summary of the method: as §1

[3] = tested on: HCC2218
Summary of the method: as §1

[4] = tested on: SNU475
Summary of the method: as §1

[5] = tested on: CCRFCEM
Summary of the method: as §1

[6] = tested on: HCC1143
Summary of the method: as §1

[7] = tested on: KPL1
Summary of the method: as §1

[8] = tested on: HEYA8
Summary of the method: as §1

[9] = tested on: DMS273
Summary of the method: as §1

[10] = tested on: KELLY
Summary of the method: as §1

[11] = tested on: HCC1806
Summary of the method: as §1

[12] = tested on: PATU8988T
Summary of the method: as §1

[13] = tested on: JURKAT
Summary of the method: as §1

[14] = tested on: OVCAR8
Summary of the method: as §1

[15] = tested on: OVCAR5
Summary of the method: as §1

[16] = tested on: NCIH69
Summary of the method: as §1

[17] = tested on: NCIH1703
Summary of the method: as §1

[18] = tested on: SW900
Summary of the method: as §1

[19] = tested on: TEK1
Summary of the method: as §1

Cc1cc(NC2CCN(C(=O)O[C@H]3CCN(C(=O)/C=C/CN(C)C)C3)CC2)n2ncc(C(C)C)c2n1 [Example 1, [(3S)-1-[(E)-4-(dimethylamino)but-2-enoyl]pyrrolidin-3-yl] 4-[(3-isopropyl-5-methyl-pyrazolo[1,5-a]pyrimidin-7-yl)amino]piperidine-1-carboxylate]
Anti-proliferation effect % Inh. ([1]; EVSAT, BREAST, 7 days): 79% | Anti-proliferation effect Outcome ([1]; EVSAT, BREAST, 7 days): Cytotoxic (cytotoxic (IC50<1 μM and % inhibition ≥70%)) | IC50 ([1]; Homo sapiens, EVSA-T, 168 h, read-out: Anti-proliferation effect IC50): 40 nM | IC50 ([2]; Homo sapiens, SK-OV-3, 168 h, read-out: Anti-proliferation effect IC50): > 10000 nM | Anti-proliferation effect % Inh. ([2]; SKOV3, OVARY, 7 days): 27% | Anti-proliferation effect Outcome ([2]; SKOV3, OVARY, 7 days): Insensitive (insensitive (IC50≥1 μM)) | Anti-proliferation effect % Inh. ([3]; HCC2218, BREAST, 7 days): 41% | Anti-proliferation effect Outcome ([3]; HCC2218, BREAST, 7 days): Cytostatic (cytostatic (IC50<1 μM and % inhibition <70%)) | IC50 ([3]; Homo sapiens, HCC2218, 168 h, read-out: Anti-proliferation effect IC50): 560 nM | IC50 ([4]; Homo sapiens, SNU-475, 168 h, read-out: Anti-proliferation effect IC50): 3920 nM | Anti-proliferation effect % Inh. ([4]; SNU475, LIVER, 7 days): 28% | Anti-proliferation effect Outcome ([4]; SNU475, LIVER, 7 days): Insensitive (insensitive (IC50≥1 μM)) | Anti-proliferation effect % Inh. ([5]; CCRFCEM, BLOOD, 7 days): 96% | Anti-proliferation effect Outcome ([5]; CCRFCEM, BLOOD, 7 days): Cytotoxic (cytotoxic (IC50<1 μM and % inhibition ≥70%)) | IC50 ([5]; Homo sapiens, CCRF-CEM, 168 h, read-out: Anti-proliferation effect IC50): 40 nM | Anti-proliferation effect % Inh. ([6]; HCC1143, BREAST, 7 days): 37% | Anti-proliferation effect Outcome ([6]; HCC1143, BREAST, 7 days): Insensitive (insensitive (IC50≥1 μM)) | IC50 ([6]; Homo sapiens, HCC1143, 168 h, read-out: Anti-proliferation effect IC50): > 10000 nM | Anti-proliferation effect % Inh. ([7]; KPL1, BREAST, 7 days): 43% | Anti-proliferation effect Outcome ([7]; KPL1, BREAST, 7 days): Cytostatic (cytostatic (IC50<1 μM and % inhibition <70%)) | IC50 ([7]; KPL-1, 168 h, read-out: Anti-proliferation effect IC50): 668 nM | IC50 ([8]; HEY A8, 168 h, read-out: Anti-proliferation effect IC50): 112 nM | Anti-proliferation effect % Inh. ([8]; HEYA8, OVARY, 7 days): 89% | Anti-proliferation effect Outcome ([8]; HEYA8, OVARY, 7 days): Cytotoxic (cytotoxic (IC50<1 μM and % inhibition ≥70%)) | Anti-proliferation effect % Inh. ([9]; DMS273, LUNG, 7 days): 80% | Anti-proliferation effect Outcome ([9]; DMS273, LUNG, 7 days): Cytotoxic (cytotoxic (IC50<1 μM and % inhibition ≥70%)) | IC50 ([9]; Homo sapiens, DMS-273, 168 h, read-out: Anti-proliferation effect IC50): 19 nM | Anti-proliferation effect % Inh. ([10]; KELLY, CNS, 7 days): 80% | Anti-proliferation effect Outcome ([10]; KELLY, CNS, 7 days): Cytotoxic (cytotoxic (IC50<1 μM and % inhibition ≥70%)) | IC50 ([10]; Kelly, 168 h, read-out: Anti-proliferation effect IC50): 58 nM | Anti-proliferation effect % Inh. ([11]; HCC1806, BREAST, 7 days): 99% | Anti-proliferation effect Outcome ([11]; HCC1806, BREAST, 7 days): Cytotoxic (cytotoxic (IC50<1 μM and % inhibition ≥70%)) | IC50 ([11]; Homo sapiens, HCC1806, 168 h, read-out: Anti-proliferation effect IC50): 14 nM | IC50 ([12]; Homo sapiens, PaTu 8988t, 168 h, read-out: Anti-proliferation effect IC50): 201 nM | Anti-proliferation effect % Inh. ([12]; PATU8988T, PANCREAS, 7 days): 55% | Anti-proliferation effect Outcome ([12]; PATU8988T, PANCREAS, 7 days): Cytostatic (cytostatic (IC50<1 μM and % inhibition <70%)) | IC50 ([13]; Homo sapiens, Jurkat, 168 h, read-out: Anti-proliferation effect IC50): 61 nM | Anti-proliferation effect % Inh. ([13]; JURKAT, BLOOD, 7 days): 98% | Anti-proliferation effect Outcome ([13]; JURKAT, BLOOD, 7 days): Cytotoxic (cytotoxic (IC50<1 μM and % inhibition ≥70%)) | IC50 ([14]; Homo sapiens, OVCAR-8, 168 h, read-out: Anti-proliferation effect IC50): 65 nM | Anti-proliferation effect % Inh. ([14]; OVCAR8, OVARY, 7 days): 90% | Anti-proliferation effect Outcome ([14]; OVCAR8, OVARY, 7 days): Cytotoxic (cytotoxic (IC50<1 μM and % inhibition ≥70%)) | IC50 ([15]; Homo sapiens, OVCAR-5, 168 h, read-out: Anti-proliferation effect IC50): 86 nM | Anti-proliferation effect % Inh. ([15]; OVCAR5, OVARY, 7 days): 74% | Anti-proliferation effect Outcome ([15]; OVCAR5, OVARY, 7 days): Cytotoxic (cytotoxic (IC50<1 μM and % inhibition ≥70%)) | IC50 ([16]; Homo sapiens, NCI-H69, 168 h, read-out: Anti-proliferation effect IC50): 173 nM | Anti-proliferation effect % Inh. ([16]; NCIH69, LUNG, 7 days): 68% | Anti-proliferation effect Outcome ([16]; NCIH69, LUNG, 7 days): Cytostatic (cytostatic (IC50<1 μM and % inhibition <70%)) | IC50 ([17]; Homo sapiens, NCI-H1703, 168 h, read-out: Anti-proliferation effect IC50): 40 nM | Anti-proliferation effect % Inh. ([17]; NCIH1703, LUNG, 7 days): 92% | Anti-proliferation effect Outcome ([17]; NCIH1703, LUNG, 7 days): Cytotoxic (cytotoxic (IC50<1 μM and % inhibition ≥70%)) | IC50 ([18]; Homo sapiens, SW900, 168 h, read-out: Anti-proliferation effect IC50): 3810 nM | Anti-proliferation effect % Inh. ([18]; SW900, LUNG, 7 days): 13% | Anti-proliferation effect Outcome ([18]; SW900, LUNG, 7 days): Insensitive (insensitive (IC50≥1 μM)) | IC50 ([19]; 168 h, read-out: Anti-proliferation effect IC50): 40 nM | Anti-proliferation effect % Inh. ([19]; TEK1, BILIARY, 7 days): 87% | Anti-proliferation effect Outcome ([19]; TEK1, BILIARY, 7 days): Cytotoxic (cytotoxic (IC50<1 μM and % inhibition ≥70%))
